Patent publication US20250332173A1, “COMPOUNDS AND METHODS FOR MODULATING NUCLEIC ACID SPLICING” (REMIX THERAPEUTICS INC., priority 2021, published 2025)
Read-outs that look alike come from different tables or passages of the source.

Tests used:
Type in all cases: cell-based, human
SMN2 mRNA = test: RT-qPCR splicing assay, SMN2 canonical junction (CJ) mRNA; conditions: Homo sapiens
Outline: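 Cells are plated (A673 allowed 24 h to adhere), dosed with an 11-point 3-fold series topping at 10 uM final, and incubated 24 h at 37 °C. Lysis is followed by cDNA synthesis and qPCR of the CJ transcript, normalized to a housekeeping gene.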

MYB mRNA = test: RT-qPCR splicing assay, MYB canonical junction (CJ) and alternative junction (AJ) mRNA; conditions: Homo sapiens; for AC50: increase in MYB alternative junction (AJ) mRNA, read-out: MYB AJ AC50
Outline: (§1)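 24 h treatment, 37 °C/5% CO2; A673 or K562; 11-pt 3-fold series, top 10 uM final; DMSO ≤0.25%. Cell lysis with DNase I, then 1-step RT-qPCR. Housekeeping normalization: PPIA (A673), GAPDH or GUSB (K562).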

HTT mRNA = test: RT-qPCR splicing assay, HTT canonical junction (CJ) and alternative junction (AJ) mRNA; conditions: Homo sapiens; for AC50: increase in HTT alternative junction (AJ) mRNA, read-out: HTT AJ AC50
Outline: as §1

[1] = canonical junction qPCR panel, Table 5, read-out: SMN2 (decrease in CJ mRNA levels, IC50)
[2] = canonical junction qPCR panel, Table 5, read-out: MYB (decrease in CJ mRNA levels, IC50)
[3] = decrease in MYB canonical junction (CJ) mRNA, RT-qPCR, read-out: MYB CJ IC50
[4] = decrease in HTT canonical junction (CJ) mRNA, RT-qPCR, read-out: HTT CJ IC50
[5] = canonical junction qPCR panel, Table 5, read-out: HTT (decrease in CJ mRNA levels, IC50)
[6] = Table 5 panel, canonical junction qPCR, compound concentration having 50% response in CJ decrease, read-out: SMN2 IC50 (decrease in CJ mRNA levels)
[7] = Table 5 panel, canonical junction qPCR, compound concentration having 50% response in CJ decrease, read-out: MYB IC50 (decrease in CJ mRNA levels)
[8] = Table 5 panel, canonical junction qPCR, compound concentration having 50% response in CJ decrease, read-out: HTT IC50 (decrease in CJ mRNA levels)

| IC50 (SMN2 mRNA; [1]) [nM] | IC50 (MYB mRNA; [2]) [nM] | IC50 (MYB mRNA; [3]) [nM] | IC50 (HTT mRNA; [4]) [nM] | IC50 (HTT mRNA; [5]) [nM] | IC50 (SMN2 mRNA; [6]) [nM] | IC50 (MYB mRNA; [7]) [nM] | IC50 (HTT mRNA; [8]) [nM] | SMILES | AC50 (MYB mRNA; RT-qPCR) [nM] | AC50 (HTT mRNA; RT-qPCR) [nM] |
| --- | --- | --- | --- | --- | --- | --- | --- | --- | --- | --- |
| < 100 | < 100 | < 100 | 100 to 1000 | 100 to 1000 | – | – | – | Cc1c(O)c(-c2ncc3c(=O)n([C@@H]4CCN[C@@H](C)C4)ccc3n2)cc2cn(C)nc12 [Compound 1462, 2-(6-hydroxy-2,7-dimethyl-indazol-5-yl)-6-[(2S,4R)-2-methyl-4-piperidyl]pyrido[4,3-d]pyrimidin-5-one] | < 100 | 100 to 1000 |
| < 100 | < 100 | < 100 | 100 to 1000 | < 100 | – | – | – | Cc1c(O)c(-c2ncc3c(=O)n([C@@H]4CC[C@H](N)C4)ccc3n2)cc2cn(C)nc12 [Compound 1477] | < 100 | < 100 |
| < 100 | 100 to 1000 | 100 to 1000 | 100 to 1000 | 100 to 1000 | – | – | – | Cc1cn2nc(-c3ccc4c(=O)n(C5CC(C)N[C@H](C)C5)ncc4n3)cc(C)c2n1 (stereo in doubt) [Compound 1536, 2-(2,8-dimethylimidazo[1,2-b]pyridazin-6-yl)-6-[(2S,6R)-2,6-dimethyl-4-piperidyl]pyrido[2,3-d]pyridazin-5-one] | 100 to 1000 | 100 to 1000 |
| > 10000 | > 10000 | > 10000 | > 10000 | > 10000 | – | – | – | Cc1cc(-c2ccc3c(=O)[nH]c(N4CCNCC4)nc3c2)cc2cn(C)nc12 [Compound 2211] | > 10000 | > 10000 |
| 100 to 1000 | 1000 to 10000 | 1000 to 10000 | 1000 to 10000 | 100 to 1000 | – | – | – | Cc1cn2nc(-c3ccc4c(=O)n(C5CCNC6(CCC6)C5)ncc4n3)cc(C)c2n1 (stereo not drawn) [Compound 1553] | 1000 to 10000 | 100 to 1000 |
| > 10000 | > 10000 | > 10000 | > 10000 | > 10000 | – | – | – | Cn1cc2ccc(-n3cnc4ccc(NC5CCNCC5)cc4c3=O)cc2n1 [Compound 2164] | > 10000 | > 10000 |
| < 100 | 100 to 1000 | 100 to 1000 | > 10000 | 1000 to 10000 | – | – | – | Cn1cc2cc(-c3ncc4c(=O)n(C56CCC(N)(CC5)C6)ccc4n3)c(O)cc2n1 [Compound 1470] | 100 to 1000 | 1000 to 10000 |
| > 10000 | > 10000 | > 10000 | > 10000 | > 10000 | – | – | – | Cc1cn2nc(-n3cnc4ccc(N5CCNCC5)cc4c3=O)cc(C)c2n1 [Compound 2201] | > 10000 | > 10000 |
| < 100 | 100 to 1000 | 100 to 1000 | 100 to 1000 | 100 to 1000 | – | – | – | Cc1cn2nc(-c3ccc4c(=O)n([C@@H]5CCN(C)[C@H](C)C5)ncc4n3)cc(C)c2n1 [Compound 1527] | 100 to 1000 | 100 to 1000 |
| 1000 to 10000 | 1000 to 10000 | 1000 to 10000 | 1000 to 10000 | 1000 to 10000 | – | – | – | Cc1cn2nc(-n3cnc4ccc(N5CCN(C)CC5)cc4c3=O)cc(C)c2n1 [Compound 2202] | 1000 to 10000 | 1000 to 10000 |
| < 100 | 100 to 1000 | 100 to 1000 | 100 to 1000 | < 100 | – | – | – | Cc1cn2nc(-c3ccc4c(=O)n([C@H]5CCN(C)C6(CC6)C5)ncc4n3)cc(C)c2n1 [Compound 1533] | 100 to 1000 | < 100 |
| < 100 | 100 to 1000 | 100 to 1000 | 100 to 1000 | < 100 | – | – | – | CCN1CC[C@H](n2ncc3nc(-c4cc(C)c5nc(C)cn5n4)ccc3c2=O)CC12CC2 [Compound 1531] | 100 to 1000 | < 100 |
| < 100 | 100 to 1000 | 100 to 1000 | 100 to 1000 | 100 to 1000 | – | – | – | Cn1cc2cc(-c3ncc4c(=O)n([C@H]5CCNC5)ccc4n3)c(O)c(F)c2n1 [Compound 1465] | 100 to 1000 | 100 to 1000 |
| < 100 | < 100 | < 100 | 100 to 1000 | 100 to 1000 | – | – | – | Cc1c(O)c(-c2ncc3c(=O)n([C@H]4CCN[C@H](C)C4)ccc3n2)cc2cn(C)nc12 [Compound 1461, 2-(6-hydroxy-2,7-dimethyl-indazol-5-yl)-6-[(2R,4S)-2-methyl-4-piperidyl]pyrido[4,3-d]pyrimidin-5-one] | < 100 | 100 to 1000 |
| < 100 | 100 to 1000 | < 100 | < 100 | < 100 | – | – | – | Cc1cn2nc(-c3ccc4c(=O)n([C@@H]5CCN(C)C6(CC6)C5)ncc4n3)cc(C)c2n1 [Compound 1534] | 100 to 1000 | < 100 |

The remaining lines, values behind:

| SMILES | IC50 (SMN2 mRNA; [1]) [nM] | IC50 (MYB mRNA; [2]) [nM] | IC50 (MYB mRNA; [3]) [nM] | IC50 (HTT mRNA; [4]) [nM] | IC50 (HTT mRNA; [5]) [nM] | IC50 (SMN2 mRNA; [6]) [nM] | IC50 (MYB mRNA; [7]) [nM] | IC50 (HTT mRNA; [8]) [nM] | AC50 (MYB mRNA; RT-qPCR) [nM] | AC50 (HTT mRNA; RT-qPCR) [nM] |
| --- | --- | --- | --- | --- | --- | --- | --- | --- | --- | --- |
| Cc1cn2cc(-c3ccc4c(=O)n(C5CCNCC5)cnc4c3F)cc(F)c2n1 [Compound 210] | – | – | 1000 to 10000 | 1000 to 10000 | – | 100 to 1000 | 1000 to 10000 | 1000 to 10000 | 1000 to 10000 | 1000 to 10000 |
| Cn1cc2cc(-c3ccc4c(c3)CCN(C3CCNCC3)C4=O)cc(F)c2n1 [Compound 225] | – | – | > 10000 | > 10000 | – | > 10000 | > 10000 | > 10000 | > 10000 | > 10000 |
| Cc1cc(-c2cc(F)c3c(=O)n(C4CCNCC4)cnc3c2)cc2cn(C)nc12 [Compound 232] | – | – | < 100 | < 100 | – | < 100 | < 100 | < 100 | < 100 | < 100 |
| Cc1cn2cc(-n3cnc4cc(N5CCN(C)CC5)ccc4c3=O)cc(F)c2n1 [Compound 229] | – | – | > 10000 | > 10000 | – | > 10000 | > 10000 | > 10000 | > 10000 | > 10000 |
| Cc1cn2cc(-c3cc(F)c4c(=O)n(C5CCNCC5)cnc4c3)cc(F)c2n1 [Compound 230] | – | – | < 100 | < 100 | – | < 100 | < 100 | < 100 | < 100 | < 100 |
| CN1CCC(n2cnc3cc(-c4cc(F)c5nn(C)cc5c4)ccc3c2=O)CC1 [Compound 209] | – | – | 100 to 1000 | 100 to 1000 | – | < 100 | 100 to 1000 | 1000 to 10000 | 100 to 1000 | 1000 to 10000 |
| Cc1cc(-c2cc(F)c3c(=O)n(C4CCN(C)CC4)cnc3c2)cc2cn(C)nc12 [Compound 233] | – | – | 100 to 1000 | 100 to 1000 | – | < 100 | 100 to 1000 | 100 to 1000 | 100 to 1000 | 100 to 1000 |
| Cc1nc2c(F)cc(-c3ccc4c(c3)CCN(C3CCNCC3)C4=O)cc2o1 [Compound 215] | – | – | 1000 to 10000 | 1000 to 10000 | – | < 100 | 1000 to 10000 | 1000 to 10000 | 1000 to 10000 | 1000 to 10000 |
| Cc1cn2nc(-n3cnc4cc(N5CCNCC5)ccc4c3=O)cc(C)c2n1 [Compound 241] | – | – | 1000 to 10000 | 1000 to 10000 | – | 1000 to 10000 | 1000 to 10000 | 1000 to 10000 | 1000 to 10000 | 1000 to 10000 |
| Cc1cc(-c2ccc3c(c2)CCN(C2CCNCC2)C3=O)cc2cn(C)nc12 [Compound 219, 6-(2,7-dimethylindazol-5-yl)-2-(piperidin-4-yl)-3,4-dihydroisoquinolin-1-one] | – | – | 100 to 1000 | 1000 to 10000 | – | < 100 | 100 to 1000 | 1000 to 10000 | 100 to 1000 | 1000 to 10000 |
| Cc1c(O)c(-c2ncc3c(=O)n([C@H]4CC[C@@H](N(C)C)CC4)ccc3n2)cc2cn(C)nc12 [Compound 1460, 6-((1s,4s)-4-(dimethylamino)cyclohexyl)-2-(6-hydroxy-2,7-dimethyl-2H-indazol-5-yl)pyrido[4,3-d]pyrimidin-5(6H)-one] | < 100 | 100 to 1000 | 100 to 1000 | 1000 to 10000 | 100 to 1000 | – | – | – | 100 to 1000 | 100 to 1000 |
| Cc1cn2nc(-c3ccc4c(c3)CCN(C3CCNCC3)C4=O)nc2c(C)n1 [Compound 222, 6-[6,8-dimethyl-[1,2,4]triazolo[1,5-a]pyrazin-2-yl]-2-(piperidin-4-yl)-3,4-dihydroisoquinolin-1-one] | – | – | 1000 to 10000 | 1000 to 10000 | – | 100 to 1000 | 1000 to 10000 | 1000 to 10000 | 1000 to 10000 | 1000 to 10000 |
